According to patent publication US4310682A, “Halo-salicylanilide” (priority 1979, dated 1982):

Tests used:
Format in all cases: cell-based
[1] = system: Escherichia coli NIHJ JC-2; assay: MIC, agar medium containing the compound; settings: bacterium No. 1, 37° C., 4 hours
Description: (§1) In order to test antifungal and bactericidal activity of halo-salicylanilide obtained in above mentioned Examples, following bacteria and fungi are employed.
No. 1 Escherichia coli NIHJ JC-2
(§2) Bacteria No. 1 to No. 4 are respectively cultured in Hart Infusion bouillon medium at 37° C. for 20 hours and resulting medium liquids are employed for said test. Fungi No. 5 to No. 7 are respectively cultured in Sabouraud agar medium and 10^6 cell/ml of cell dispersing liquids obtained from said medium are employed for said test.

[2] = system: Pseudomonas aeruqinosa NC-5; assay: MIC, agar medium containing the compound; settings: bacterium No. 2, 37° C., 4 hours
Description: as §1
No. 2 Pseudomonas aeruqinosa NC-5
as §2

[3] = system: Staphylococcus aureus FDA-209-P; assay: MIC, agar medium containing the compound; settings: bacterium No. 3, 37° C., 4 hours
Description: as §1
No. 3 Staphylococcus aureus FDA-209-P
as §2

[4] = system: Bacillus subtilis PCI-219; assay: MIC, agar medium containing the compound; settings: bacterium No. 4, 37° C., 4 hours
Description: as §1
No. 4 Bacillus subtilis PCI-219
as §2

[5] = system: Candida albicans ATCC 10259; assay: MIC, Sabouraud agar medium containing the compound; settings: fungus No. 5, 20° C., 14 days
Description: as §1
No. 5 Candida albicans ATCC 10259
as §2

[6] = system: Trichophyton rubrum IFO 9185; assay: MIC, Sabouraud agar medium containing the compound; settings: fungus No. 7, 20° C., 14 days
Description: as §1
No. 7 Trichophyton rubrum IFO 9185
as §2

[7] = system: Aspergillus flavus IFO 8558; assay: MIC, Sabouraud agar medium containing the compound; settings: fungus No. 6, 20° C., 14 days
Description: as §1
No. 6 Aspergillus flavus IFO 8558
as §2

[8] = system: bacteria No. 1 to No. 4 and fungi No. 5 to No. 7; assay: Antifungal and bactericidal activity test, overall assessment of Table 8; settings: referring to Table 8
Description: as §1, §2
Referring now to Table 8, in said Examples the halo-salicylanilides provided have respectively remarkable higher antifungal and bactericidal activity than that of the contrasts proposed and said halo-salicylanilidesare especially effective on bacteria No. 3 and No. 4, and fungi No. 5, No. 6 and No. 7. This testifies that alkyl group of 2'-position of the halo-salicylanilides is significant for the activities of the compound. […] Especially the halo-salicylanilides having fluorine in 5-position are very useful for agricultural medicines.

[9] = system: Candida albicans ATCC 10259; assay: Multiplying state after removal to compound-free medium (scanning electron microscope); settings: first cultured in medium containing the compound, then removed; FIG. 1 and FIG. 2

Row | Compound | MIC (Minimum Inhibitory Concentration) [1] | MIC (Minimum Inhibitory Concentration) [2] | MIC (Minimum Inhibitory Concentration) [3] | MIC (Minimum Inhibitory Concentration) [4] | MIC (Minimum Inhibitory Concentration) [5] | MIC (Minimum Inhibitory Concentration) [6] | MIC (Minimum Inhibitory Concentration) [7] | antifungal and bactericidal activity (assessment in words) [8] | multiplying state of the fungi after removal to culture medium without the compound [9]
1 | CC(=O)Oc1ccc(F)cc1C(=O)Nc1ccc(Br)cc1C [compound 17, 5-fluoro-2'-methyl-4'-bromo acetylsalicylanilide] | > 100 | 100 | 0.4 | 0.4 | 100 | < 0.8 |  |  | 
2 | COC1=CC(=O)C[C@@H](C)[C@]12Oc1c(Cl)c(OC)cc(OC)c1C2=O [Contrast No. 4, griseo fulvin, reference compound] | > 100 |  | > 100 | > 100 |  | 25 | 25 |  | 
3 | Cc1cc(Br)ccc1NC(=O)c1cc(I)ccc1O [compound 5, 5-iodo-2'-methyl-4'-bromo salicylanilide] | > 100 |  | 0.37 | 0.75 | 3.2 | 3.2 | 3.2 | remarkable antifungal and bactericidal activity | 
4 | Cc1cc(Br)ccc1NC(=O)c1cc(Br)ccc1O [compound 10, 5-bromo-2'-methyl-4'-bromo salicylanilide] | > 100 | > 100 | 0.2 | 0.4 | 100 | 0.8 |  |  | 
5 | CC(=O)Oc1ccc(F)cc1C(=O)Nc1ccc(I)cc1C [compound 19, 5-fluoro-2'-methyl-4'-iodo acetylsalicylanilide] | > 100 | 100 | 0.4 | 0.4 | 100 | < 0.8 |  |  | 
6 | CC(=O)Oc1ccc(I)cc1C(=O)Nc1ccc(Cl)cc1C [compound 12, 5-iodo-2'-methyl-4'-chloro acetylsalicylanilide] | > 100 | 100 | 0.8 | 0.8 | 100 | 0.8 |  |  | 
7 | 5-chloro-2'-methyl-4'-bromo chloro salicylanilide [compound 7] | > 100 | > 100 | 0.8 | 0.8 | 100 | 25 |  |  | 
8 | Cc1cc(Br)ccc1NC(=O)c1cc(F)ccc1O [compound 16, 5-fluoro-2'-methyl-4'-bromo salicylanilide] | > 100 | 100 | 0.4 | 0.4 | 100 | < 0.8 |  |  | 
9 | CC(=O)Oc1ccc(Cl)cc1C(=O)Nc1ccc(Br)cc1C [compound 8, 5-chloro-2'-methyl-4'-bromo acetylsalicylanilide] | > 100 | > 100 | 0.8 | 0.8 | 100 | < 0.8 |  |  | 
10 | O=C(Nc1ccc(Cl)cc1)c1cc(I)cc(I)c1O [Contrast No. 2, reference compound] | > 100 | > 100 |  |  | 50 | 50 | > 100 |  | again starts to multiply
11 | Cc1cc(Cl)ccc1NC(=O)c1cc(Br)ccc1O [compound 1, 5-bromo-2'-methyl-4'-chloro salicylanilide] | > 100 | > 100 | 0.8 | 0.8 | 50 | 50 | 50 |  | 
12 | C=CCCCCCCCCC(=O)O [Contrast No. 3, undecylenic acid, reference compound] | > 100 |  | > 100 | > 100 |  | 50 | 50 |  | 
13 | CC(=O)Oc1ccc(Cl)cc1C(=O)Nc1ccc(Cl)cc1C [compound 4, 5-chloro-2'-methyl-4' chloro-acetyl salcylanilide] | > 100 | > 100 | 0.1 | 0.2 | 100 | 0.2 |  |  | 
14 | O=C(Nc1ccc(Cl)cc1)c1cc(Br)ccc1O [Contrast No. 1, reference compound] | > 100 | > 100 |  |  | > 100 | 50 | > 100 |  | 
15 | CC(=O)Oc1ccc(F)cc1C(=O)Nc1ccc(Cl)cc1C [compound 15, 5-fluoro-2'-methyl-4'-chloro acetylsalicylanilide] | > 100 | 100 | 0.4 | 0.4 | 100 | < 0.8 |  |  | 
16 | Cc1cc(Br)ccc1NC(=O)c1cc(Cl)ccc1O [compound 2, 5-chloro-2'-methyl-4'-bromo salicyl anilide] | > 100 | > 100 | 0.8 | 0.8 | 50 | 50 | 50 |  | 
17 | CCc1cc(Cl)ccc1NC(=O)c1cc(I)ccc1O [compound 6, 5-iodo-2'-ethyl-4'-chloro salicylanilide] | > 100 |  | 0.75 | 0.75 | 6.3 | 3.2 | 3.2 | remarkable antifungal and bactericidal activity | 
18 | CC(=O)Oc1ccc(Br)cc1C(=O)Nc1ccc(Cl)cc1C [compound 9, 5-bromo-2'-methyl-4'-chloro acetylsalicylanilide] | > 100 | > 100 | 0.8 | 0.8 | 100 | 25 |  |  | 
19 | Cc1cc(I)ccc1NC(=O)c1cc(F)ccc1O [compound 18, 5-fluoro-2'-methyl-4'-iodo salicylanilide] | > 100 | 100 | 0.4 | 0.4 | 100 | < 0.8 |  |  | 
20 | CC(=O)Oc1ccc(I)cc1C(=O)Nc1ccc(Br)cc1C [compound 13, 5-iodo-2'-methyl-4'-bromo acetylsalicylanilide] | > 100 | 100 | 0.2 | 0.4 | 100 | 12.5 |  | remarkable antifungal and bactericidal activity | 
21 | 5-bromo-2'-methyl-4'-acetylsalicylanilide [compound 11] | > 100 | > 100 | 0.2 | 0.4 | 100 | 0.8 |  |  | 
22 | Cc1cc(Cl)ccc1NC(=O)c1cc(F)ccc1O [compound 14, 5-fluoro-2'-methyl-4'-chloro salicylanilide] | > 100 | 100 | 0.4 | 0.4 | 100 | < 0.8 |  |  | 
